Reference: ChEMBL document CHEMBL5696442, “Discovery of type II inhibitors of TGFβ-activated kinase 1 (TAK1) and mitogen-activated protein kinase kinase kinase kinase 2 (MAP4K2)” (J Med Chem, 2015)
The source made the active and inactive calls. The calls are words filed in the database; no cut-off is given here.

Legend:
[1] = biological target: Serine/threonine-protein kinase 4 (Homo sapiens) (UniProt Q13043); test: Inhibition of MST1 Lys2 labeling site harbouring DIKAGNILLNTEGHAK in human Huh-7 cell lysate at 1 uM by KiNativ Profiling analysis relative to control
Sequence of Serine/threonine-protein kinase 4 (Homo sapiens) (Q13043 whole entry, looked up): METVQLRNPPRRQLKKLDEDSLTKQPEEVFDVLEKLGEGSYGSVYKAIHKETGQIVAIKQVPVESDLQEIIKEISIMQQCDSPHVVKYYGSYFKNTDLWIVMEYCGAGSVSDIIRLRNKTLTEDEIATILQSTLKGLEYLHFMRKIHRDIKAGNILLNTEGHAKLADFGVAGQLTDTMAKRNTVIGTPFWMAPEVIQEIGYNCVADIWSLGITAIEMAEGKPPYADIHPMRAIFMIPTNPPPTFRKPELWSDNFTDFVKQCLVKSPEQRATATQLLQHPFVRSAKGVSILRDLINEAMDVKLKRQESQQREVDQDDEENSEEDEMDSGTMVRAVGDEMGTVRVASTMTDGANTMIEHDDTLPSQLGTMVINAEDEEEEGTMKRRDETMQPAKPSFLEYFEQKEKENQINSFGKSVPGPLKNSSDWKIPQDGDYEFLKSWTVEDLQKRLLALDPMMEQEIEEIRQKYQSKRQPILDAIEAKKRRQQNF

[2] = biological target: T1, Serine/threonine-protein kinase Chk1 (Homo sapiens) (UniProt O14757); test: Inhibition of CHK1 Lys2 labeling site in human Huh-7 cell lysate at 1 uM by KiNativ Profiling analysis relative to control; format: subcellular
T1 sequence (whole entry): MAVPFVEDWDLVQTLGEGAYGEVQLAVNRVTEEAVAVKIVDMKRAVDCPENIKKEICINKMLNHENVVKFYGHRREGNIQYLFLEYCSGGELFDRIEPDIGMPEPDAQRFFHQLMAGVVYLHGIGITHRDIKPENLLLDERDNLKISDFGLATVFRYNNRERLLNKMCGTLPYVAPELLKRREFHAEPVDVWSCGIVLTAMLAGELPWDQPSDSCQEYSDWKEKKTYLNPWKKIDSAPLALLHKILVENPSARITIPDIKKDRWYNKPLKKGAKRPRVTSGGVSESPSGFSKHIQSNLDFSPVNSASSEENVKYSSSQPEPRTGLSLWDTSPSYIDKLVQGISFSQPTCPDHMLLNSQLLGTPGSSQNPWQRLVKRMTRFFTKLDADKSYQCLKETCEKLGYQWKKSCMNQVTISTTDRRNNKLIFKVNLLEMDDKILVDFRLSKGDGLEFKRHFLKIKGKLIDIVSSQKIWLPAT

[3] = biological target: Serine/threonine-protein kinase WNK2 (Homo sapiens) (UniProt Q9Y3S1); test: Inhibition of Wnk2 ACT labeling site in human Huh-7 cell lysate at 1 uM by KiNativ Profiling analysis relative to control; format: subcellular
Sequence of Serine/threonine-protein kinase WNK2 (Homo sapiens) (Q9Y3S1 whole entry): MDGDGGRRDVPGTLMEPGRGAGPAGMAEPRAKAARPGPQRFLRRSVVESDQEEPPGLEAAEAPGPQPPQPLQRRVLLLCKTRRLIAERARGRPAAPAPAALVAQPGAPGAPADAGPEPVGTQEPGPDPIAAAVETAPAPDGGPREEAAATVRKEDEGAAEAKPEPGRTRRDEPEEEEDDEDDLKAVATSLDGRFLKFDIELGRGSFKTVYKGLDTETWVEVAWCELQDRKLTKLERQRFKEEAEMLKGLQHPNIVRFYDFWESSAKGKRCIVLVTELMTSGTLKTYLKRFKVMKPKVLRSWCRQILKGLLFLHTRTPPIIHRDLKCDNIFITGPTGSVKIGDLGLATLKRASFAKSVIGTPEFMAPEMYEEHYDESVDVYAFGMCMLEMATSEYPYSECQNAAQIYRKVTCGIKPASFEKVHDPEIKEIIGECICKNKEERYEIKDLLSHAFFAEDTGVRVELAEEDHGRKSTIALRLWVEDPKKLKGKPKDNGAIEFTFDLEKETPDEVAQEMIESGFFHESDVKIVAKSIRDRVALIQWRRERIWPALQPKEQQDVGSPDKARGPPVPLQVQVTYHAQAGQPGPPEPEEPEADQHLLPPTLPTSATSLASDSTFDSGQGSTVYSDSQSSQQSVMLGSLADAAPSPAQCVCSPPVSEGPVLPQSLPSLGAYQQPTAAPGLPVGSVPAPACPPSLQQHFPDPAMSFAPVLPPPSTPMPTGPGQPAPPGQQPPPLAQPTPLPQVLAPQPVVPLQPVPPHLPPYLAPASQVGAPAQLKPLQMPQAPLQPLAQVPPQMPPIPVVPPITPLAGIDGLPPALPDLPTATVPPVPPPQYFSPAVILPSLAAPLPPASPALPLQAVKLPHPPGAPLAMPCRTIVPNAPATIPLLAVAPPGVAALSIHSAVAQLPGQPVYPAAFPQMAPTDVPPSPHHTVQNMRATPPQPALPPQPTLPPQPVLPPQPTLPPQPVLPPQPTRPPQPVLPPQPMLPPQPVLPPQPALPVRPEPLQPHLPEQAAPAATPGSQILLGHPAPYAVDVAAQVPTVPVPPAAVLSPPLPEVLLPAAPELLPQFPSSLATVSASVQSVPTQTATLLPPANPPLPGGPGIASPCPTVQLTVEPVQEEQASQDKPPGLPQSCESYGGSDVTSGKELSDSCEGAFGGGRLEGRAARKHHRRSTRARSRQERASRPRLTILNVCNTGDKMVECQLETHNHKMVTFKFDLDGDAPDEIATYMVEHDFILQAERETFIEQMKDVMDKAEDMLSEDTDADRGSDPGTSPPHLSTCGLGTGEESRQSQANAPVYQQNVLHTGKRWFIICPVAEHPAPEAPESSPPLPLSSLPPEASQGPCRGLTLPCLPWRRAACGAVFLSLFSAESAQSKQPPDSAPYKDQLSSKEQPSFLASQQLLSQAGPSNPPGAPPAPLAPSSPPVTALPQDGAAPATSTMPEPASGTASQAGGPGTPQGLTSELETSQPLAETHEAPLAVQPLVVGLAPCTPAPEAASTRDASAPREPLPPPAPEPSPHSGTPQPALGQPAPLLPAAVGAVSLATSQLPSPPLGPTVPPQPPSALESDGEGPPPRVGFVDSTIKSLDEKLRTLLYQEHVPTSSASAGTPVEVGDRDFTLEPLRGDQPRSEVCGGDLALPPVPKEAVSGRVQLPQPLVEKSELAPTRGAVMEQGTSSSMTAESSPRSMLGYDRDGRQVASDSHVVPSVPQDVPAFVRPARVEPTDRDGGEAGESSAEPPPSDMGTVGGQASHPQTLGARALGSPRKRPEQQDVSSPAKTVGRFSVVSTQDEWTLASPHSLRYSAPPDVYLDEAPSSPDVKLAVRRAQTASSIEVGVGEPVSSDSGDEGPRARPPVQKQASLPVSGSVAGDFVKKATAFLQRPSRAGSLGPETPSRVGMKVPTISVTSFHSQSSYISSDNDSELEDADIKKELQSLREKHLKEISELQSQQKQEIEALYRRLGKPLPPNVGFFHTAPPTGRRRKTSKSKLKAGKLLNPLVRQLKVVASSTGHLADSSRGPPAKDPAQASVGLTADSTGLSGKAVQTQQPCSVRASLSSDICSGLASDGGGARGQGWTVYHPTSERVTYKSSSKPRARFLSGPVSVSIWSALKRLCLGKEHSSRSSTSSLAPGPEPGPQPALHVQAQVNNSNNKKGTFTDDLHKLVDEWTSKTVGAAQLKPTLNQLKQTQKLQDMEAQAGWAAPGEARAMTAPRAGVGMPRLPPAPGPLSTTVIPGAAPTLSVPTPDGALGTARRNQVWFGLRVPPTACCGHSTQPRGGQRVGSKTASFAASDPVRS

[4] = biological target: Focal adhesion kinase 1 (Homo sapiens) (UniProt Q05397); test: Inhibition of FAK Lys1 labeling site in human Huh-7 cell lysate at 1 uM by KiNativ Profiling analysis relative to control; format: subcellular
Sequence of Focal adhesion kinase 1 (Homo sapiens) (Q05397 2-1052 limits assumed): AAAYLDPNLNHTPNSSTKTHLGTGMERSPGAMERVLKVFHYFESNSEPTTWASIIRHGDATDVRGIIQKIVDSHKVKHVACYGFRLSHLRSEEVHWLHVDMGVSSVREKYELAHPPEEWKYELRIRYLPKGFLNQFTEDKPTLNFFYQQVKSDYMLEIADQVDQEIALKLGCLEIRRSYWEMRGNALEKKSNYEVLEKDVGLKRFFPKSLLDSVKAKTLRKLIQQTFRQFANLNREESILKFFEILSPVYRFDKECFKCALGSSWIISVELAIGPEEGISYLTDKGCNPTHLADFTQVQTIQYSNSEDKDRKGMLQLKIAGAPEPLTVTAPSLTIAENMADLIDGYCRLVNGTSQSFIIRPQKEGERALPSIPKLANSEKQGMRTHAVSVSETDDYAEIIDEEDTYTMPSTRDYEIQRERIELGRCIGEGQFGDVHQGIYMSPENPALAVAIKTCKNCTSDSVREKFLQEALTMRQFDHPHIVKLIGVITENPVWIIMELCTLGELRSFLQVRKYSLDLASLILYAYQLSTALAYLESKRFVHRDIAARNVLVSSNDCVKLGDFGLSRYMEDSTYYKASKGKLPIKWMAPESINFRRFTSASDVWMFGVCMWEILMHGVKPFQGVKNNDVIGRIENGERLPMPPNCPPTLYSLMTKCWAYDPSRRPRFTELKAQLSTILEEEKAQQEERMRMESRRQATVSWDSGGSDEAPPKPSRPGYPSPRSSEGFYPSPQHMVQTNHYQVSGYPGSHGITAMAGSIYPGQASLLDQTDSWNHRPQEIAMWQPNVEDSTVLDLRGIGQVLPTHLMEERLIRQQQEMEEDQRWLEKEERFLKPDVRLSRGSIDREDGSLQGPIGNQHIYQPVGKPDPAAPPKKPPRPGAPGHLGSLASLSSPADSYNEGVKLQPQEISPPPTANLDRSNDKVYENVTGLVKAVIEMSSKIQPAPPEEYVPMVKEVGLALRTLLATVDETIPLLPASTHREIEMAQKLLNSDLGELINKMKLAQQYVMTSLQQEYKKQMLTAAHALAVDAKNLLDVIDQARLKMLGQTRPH

[5] = biological target: Serine/threonine-protein kinase WNK1 (Homo sapiens) (UniProt Q9H4A3); test: Inhibition of Wnk1 Lys2 labeling site in human Huh-7 cell lysate at 1 uM by KiNativ Profiling analysis relative to control; format: subcellular
[6] = biological target: Calcium/calmodulin-dependent protein kinase type II subunit delta (Homo sapiens) (UniProt Q13557); test: Inhibition of CaMK2d Lys2 labeling site in human Huh-7 cell lysate at 1 uM by KiNativ Profiling analysis relative to control; format: subcellular
[7] = biological target: Proto-oncogene tyrosine-protein kinase Src (Homo sapiens, UniProt P12931); test: Inhibition of SRC ACT labeling site in human A-375 cells at 0.05 uM by KiNativ Profiling analysis relative to control; format: cell-based
Sequence of Proto-oncogene tyrosine-protein kinase Src (P12931 2-536 limits assumed): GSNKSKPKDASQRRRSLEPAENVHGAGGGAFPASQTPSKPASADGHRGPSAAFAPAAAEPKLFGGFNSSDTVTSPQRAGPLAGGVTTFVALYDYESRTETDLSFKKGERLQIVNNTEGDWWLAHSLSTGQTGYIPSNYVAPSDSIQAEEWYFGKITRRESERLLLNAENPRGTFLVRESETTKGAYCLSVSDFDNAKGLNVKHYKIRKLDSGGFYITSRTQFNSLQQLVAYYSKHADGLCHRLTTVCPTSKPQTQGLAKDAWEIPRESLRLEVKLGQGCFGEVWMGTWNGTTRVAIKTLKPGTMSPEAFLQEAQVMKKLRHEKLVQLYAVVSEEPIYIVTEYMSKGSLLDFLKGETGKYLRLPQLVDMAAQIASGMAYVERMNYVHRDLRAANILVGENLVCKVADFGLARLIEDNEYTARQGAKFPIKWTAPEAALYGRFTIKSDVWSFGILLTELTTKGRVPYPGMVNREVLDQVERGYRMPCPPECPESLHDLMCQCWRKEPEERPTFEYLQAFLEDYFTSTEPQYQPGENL

[8] = system: Receptor-type tyrosine-protein kinase FLT3 (Homo sapiens), P36888 [D835Y]; test: Inhibition of FLT3 D835Y mutant (unknown origin) at 1 uM by Ambit Kinomescan binding assay relative to control; values are per cent of control
[9] = biological target: Death-associated protein kinase 1 (Homo sapiens) (UniProt P53355); test: Inhibition of DAPK1 (unknown origin) at 1 uM by Ambit Kinomescan binding assay relative to control; values are per cent of control
[10] = biological target: Tyrosine-protein kinase CSK (Homo sapiens, UniProt P41240); test: Inhibition of CSK (unknown origin) at 1 uM by Ambit Kinomescan binding assay relative to control
[11] = biological target: Cyclin-dependent kinase 2 (Homo sapiens) (UniProt P24941); test: Inhibition of CDK2 Lys1 labeling site in human A-375 cells at 0.5 uM by KiNativ Profiling analysis relative to control; format: cell-based
[12] = biological target: Muscle, skeletal receptor tyrosine-protein kinase (Homo sapiens) (UniProt O15146); test: Inhibition of MUSK (unknown origin) at 10 uM by Ambit Kinomescan binding assay relative to control; values are per cent of control
[13] = biological target: T2, Serine/threonine-protein kinase ULK1 (Homo sapiens) (UniProt O75385); test: Inhibition of ULK1 Lys2 labeling site in human A-375 cells at 0.05 uM by KiNativ Profiling analysis relative to control; format: cell-based
T2 sequence (whole entry): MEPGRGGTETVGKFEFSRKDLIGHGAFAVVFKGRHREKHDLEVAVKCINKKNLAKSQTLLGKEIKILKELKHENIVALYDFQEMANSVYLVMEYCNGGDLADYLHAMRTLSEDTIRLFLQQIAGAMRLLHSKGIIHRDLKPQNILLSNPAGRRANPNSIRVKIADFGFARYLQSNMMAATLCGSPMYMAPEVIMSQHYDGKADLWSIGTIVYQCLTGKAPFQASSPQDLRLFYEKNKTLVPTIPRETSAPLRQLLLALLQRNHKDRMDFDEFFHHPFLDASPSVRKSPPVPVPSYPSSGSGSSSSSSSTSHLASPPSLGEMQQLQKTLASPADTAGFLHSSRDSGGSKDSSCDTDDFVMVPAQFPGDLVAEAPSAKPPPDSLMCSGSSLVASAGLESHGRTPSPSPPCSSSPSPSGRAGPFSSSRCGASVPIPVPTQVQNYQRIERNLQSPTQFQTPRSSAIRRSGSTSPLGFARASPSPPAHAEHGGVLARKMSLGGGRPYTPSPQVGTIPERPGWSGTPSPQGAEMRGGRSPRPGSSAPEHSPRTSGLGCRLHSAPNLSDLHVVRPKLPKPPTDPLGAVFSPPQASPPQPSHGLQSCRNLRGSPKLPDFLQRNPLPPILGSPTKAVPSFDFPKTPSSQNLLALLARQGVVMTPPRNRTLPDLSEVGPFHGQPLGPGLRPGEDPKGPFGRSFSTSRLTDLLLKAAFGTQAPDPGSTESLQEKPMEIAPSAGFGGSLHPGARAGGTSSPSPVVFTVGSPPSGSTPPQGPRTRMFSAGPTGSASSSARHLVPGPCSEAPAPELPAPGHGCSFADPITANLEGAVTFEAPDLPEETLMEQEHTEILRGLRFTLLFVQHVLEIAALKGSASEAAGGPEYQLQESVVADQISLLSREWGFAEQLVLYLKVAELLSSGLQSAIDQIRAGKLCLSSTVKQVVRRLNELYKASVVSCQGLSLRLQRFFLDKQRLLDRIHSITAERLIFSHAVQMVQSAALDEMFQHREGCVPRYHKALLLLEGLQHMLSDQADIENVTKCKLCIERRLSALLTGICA

[14] = biological target: Calcium/calmodulin-dependent protein kinase kinase 1 (Homo sapiens) (UniProt Q8N5S9); test: Inhibition of CAMKK1 (unknown origin) at 10 uM by Ambit Kinomescan binding assay
Sequence of Calcium/calmodulin-dependent protein kinase kinase 1 (Homo sapiens) (Q8N5S9 whole entry, looked up): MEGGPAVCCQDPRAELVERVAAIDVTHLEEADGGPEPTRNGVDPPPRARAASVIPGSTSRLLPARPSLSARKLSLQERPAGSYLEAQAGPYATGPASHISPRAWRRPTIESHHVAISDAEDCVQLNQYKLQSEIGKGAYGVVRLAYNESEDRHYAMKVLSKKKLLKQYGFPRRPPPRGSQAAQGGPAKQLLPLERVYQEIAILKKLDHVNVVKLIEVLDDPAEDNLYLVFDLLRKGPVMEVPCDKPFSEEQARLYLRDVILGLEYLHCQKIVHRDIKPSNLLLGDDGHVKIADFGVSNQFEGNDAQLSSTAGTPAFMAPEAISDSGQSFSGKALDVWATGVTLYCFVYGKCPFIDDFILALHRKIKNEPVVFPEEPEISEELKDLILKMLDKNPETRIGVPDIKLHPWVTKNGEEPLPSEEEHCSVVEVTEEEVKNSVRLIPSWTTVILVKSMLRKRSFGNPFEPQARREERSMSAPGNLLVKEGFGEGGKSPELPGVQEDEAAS

## CNc1cc(Oc2cc(C(=O)Nc3cc(N4CCN(C)CC4)cc(C(F)(F)F)c3)ccc2C)ncn1
[1]
  inhibition: 8.2%
[2]
  inhibition: -1.1%
[3]
  inhibition: -6.9%
[4]
  inhibition: 3.3%
[5]
  inhibition: 2.7%
[6]
  inhibition: 0.7%

## CCN1CCN(Cc2ccc(NC(=O)c3ccc(C)c(/C=C/c4cnc5[nH]ccc5c4OC)c3)cc2C(F)(F)F)CC1
[7]
  inhibition: 38.9%
[8]
  residual activity: 6.8%
[9]
  residual activity: 77%
[10]
  inhibition: 2%
[11]
  inhibition: 20.7%

## CCN1CCN(Cc2ccc(NC(=O)c3ccc(C)c(Oc4ccnc5[nH]ccc45)c3)cc2C(F)(F)F)CC1
[12]
  % of control: 0.2%
[13]
  inhibition: 4.8%
[14]
  inhibition: inactive
